Measurements: US20050032784A1, “Combination drug therapy for treating hypertension” (University of Florida Research Foundation, Inc., priority 2003, published 2005)

How the values were obtained:
[1] = test system: CAD patients with hypertension; experiment: INVEST trial: new diagnosis of diabetes; type: in vivo; conditions: for HR of developing diabetes: vs NCAS not taking trandolapril or hydrochlorothiazide; for Effect of add-on medication on risk of diabetes: preliminary analyses adjusted for 5 baseline covariates and average daily dose
Text: The primary outcome was the first occurrence of death (all-cause), nonfatal MI, or nonfatal stroke by intention-to-treat analysis. The MI and stroke definitions are detailed on the INVEST Web site. These 3 components individually were the main secondary outcomes. Additional outcomes included time to most serious event (ranked from death as most serious, to MI, to stroke as least serious), cardiovascular death (definite or presumed), angina, cardiovascular hospitalizations, blood pressure control, cancer, Alzheimer disease, Parkinson disease, and gastrointestinal tract bleeding. Shortly after the study started, new information became available on the potential for ACE inhibitors to prevent or delay the onset of diabetes. Accordingly, at the recommendation of the independent data safety and monitoring committee, new diagnosis of diabetes was added as an outcome early in the recruitment phase of the study.
Of the 8098 CAS patients without diabetes at entry, 569 (7.03%) were diagnosed as having diabetes during follow-up. Of the 8078 NCAS patients without diabetes at entry, 665 (8.23%) were diagnosed as having diabetes during follow-up (RR, 0.85; 95% CI, 0.77-0.95). Patients in the CAS group were also less likely to die or develop diabetes compared with patients in the NCAS group (1050 [12.97%] vs 1177 [14.57%]; RR, 0.89; 95% CI, 0.82-0.96) and less likely to have an event in the primary outcome cluster or develop diabetes (1185 [14.63%] vs 1313 [16.25%]; RR, 0.90; 95% CI, 0.84-0.97). To explore possible explanations for reduced risk of diabetes, we conducted preliminary analyses adjusting for the 5 pre-specified baseline covariates (age, race, sex, prior MI, and prior heart failure) and included factors for average daily dose of add-on medication (trandolapril and/or hydrochlorothiazide). […] A 2-mg dose of trandolapril was associated with a HR of 0.86 (95% CI, 0.74-1.00) and a 4-mg dose was associated with a HR of 0.77 (95% CI, 0.62-0.96). In the NCAS group, a 2-mg dose of trandolapril was associated with a HR of 0.99 (95% CI, 0.90-1.08) and a 4-mg dose was associated with a HR of 0.98 (95% CI, 0.82-1.18). […] Compared with those in the NCAS group not taking either trandolapril or hydrochlorothiazide, the addition of 12.5 mg of hydrochlorothiazide was associated with a HR of 1.17 (95% CI, 1.09-1.25) and 25 mg of hydrochlorothiazide was associated with a HR of 1.36 (95% CI, 1.18-1.57).

[2] = test system: hypertensive patients randomized to the calcium antagonist strategy; experiment: INVEST subanalysis: BP reduction by addition of HCTZ to verapamil SR/trandolapril; type: in vivo
Experimental: Subanalysis Design: INVEST afforded an opportunity to analyze unique and specific combinations of antihypertensive drugs due to the data accumulated for prescription date, drug, regimen, and dose. One subanalysis was performed to evaluate the incremental benefit of BP reduction by the addition of HCTZ to various dose combinations of verapamil SR and trandolapril in patients randomized to the calcium antagonist strategy. […]
Patients who received the verapamil SR/trandolapril combination as their first randomized drug prescription in INVEST, and who received no other drug prescription or gap in medication until their first HCTZ prescription added to the initial verapamil SR/trandolapril combination dose, were selected for this subgroup analysis. […] Summary statistics for change from baseline for SBP and DBP to the last observation at each dose level for both the verapamil SR/trandolapril dual combination and the verapamil SR/trandolapril/HCTZ triple combination were analyzed. […] In this subanalysis the incremental effect of HCTZ on BP reduction was evaluated for any dose of HCTZ.

[3] = Group 1, added to verapamil SR/trandolapril 180/2 mg
[4] = Group 2, added to verapamil SR/trandolapril 240/2 mg
[5] = Group 3, added to verapamil SR/trandolapril 240/4 mg

Compound	HR of developing diabetes ([1]; 25 mg, CAS group)	HR of developing diabetes ([1]; 25 mg, NCAS group)	HR of developing diabetes ([1]; addition of 12.5 mg, CAS group)	HR of developing diabetes ([1]; addition of 12.5 mg, NCAS group)	Effect of add-on medication on risk of diabetes [1]	Decrease of mean diastolic BP with the addition of HCTZ [2, 3] [mm Hg]	Decrease of mean systolic BP after the addition of HCTZ [2, 3] [mm Hg]	Decrease of mean diastolic BP with the addition of HCTZ [2, 4] [mm Hg]	Decrease of mean systolic BP after the addition of HCTZ [2, 4] [mm Hg]	Decrease of mean diastolic BP with the addition of HCTZ [2, 5] [mm Hg]	Decrease of mean systolic BP after the addition of HCTZ [2, 5] [mm Hg]	Incremental BP reduction with addition of HCTZ ([2]; each verapamil SR/trandolapril combination group, listed as HCTZ)	HR of developing diabetes ([1]; 2-mg dose, CAS group)	HR of developing diabetes ([1]; 2-mg dose, NCAS group)	HR of developing diabetes ([1]; 4-mg dose, CAS group)	HR of developing diabetes ([1]; 4-mg dose, NCAS group)
NS(=O)(=O)c1cc2c(cc1Cl)NCNS2(=O)=O [hydrochlorothiazide]	1.28	1.36	1.11	1.17	non-statistically significant increased risk of diabetes	1.1	7.1	4.2	6.5	2.3	3.2	clinically significant, incremental BP reduction	–	–	–	–
CCOC(=O)[C@H](CCc1ccccc1)N[C@@H](C)C(=O)N1[C@H](C(=O)O)C[C@H]2CCCC[C@@H]21 [trandolapril]	–	–	–	–	appeared to confer a protective effect in the CAS group	–	–	–	–	–	–	–	0.86	0.99	0.77	0.98
